Test results reported in patent EP0998939A1, “Chalcone plant extracts for use in therapy” (THE SCHOOL OF PHARMACY, UNIVERSITY OF LONDON, priority 1998, dated 2000).
In brackets after ≈: the same amount, converted by molar mass.

What was measured:
Female CD1 mice = assay: Topical chemical erythema: inhibition of TPA induced erythema on the mouse ear; format: in vivo; details: for ED50 (dose required to inhibit erythema in at least 50% of the animals): applied to the right ear in 5µl, 20 minutes prior to TPA (0.1µg/5µl); for inhibition of chemically induced (TPA) erythema on the mouse ear, result in words: comparison among extracts or among the three chalcones
Experimental: Ref. Williamson E.M. and Evans F. (1981), Inhibition of erythema induced by proinflammatory esters of 12-deoxyphorbol. Acta Pharmacol. Toxicol.,48, 47-52
Female CD1 mice, weighing approximately 20g were used. • 2. Test plant extracts as produced in Example 1 were applied externally to the right ear of each mouse, at predetermined concentrations in 5µl quantities, 20 minutes prior to the application of the irritant compound 12-O-tetradecanoylphorbal-13-acetate (TPA)(0.1µg/5µl). • 3. A […] response was indicated by redness and inflammation of the ear. • 4. Observations were recorded at 2,3,4,6,7, and 24 hours after the application of TPA. Maximum inflammation caused by TPA alone occurs at 6 hours after the application of TPA.
Erythema of the mouse ear is the simplest experiment to perform as mice have translucent ears in which reddening is easily visible. Quantification is subjective, however the erythema can be described as pronounced, slight or absent. • Isoliquiritigenin ED50 (dose required to inhibit erythema in at least 50% of the animals) 20-50,µg • Licochalcone B ED50 5-10µg • Echinatin ED50 5-10µg

[1] = tested on: swiss 3T3 mouse fibroblast cells; assay: Cell culture 3[H] thymidine assay, Example 6.3 inhibition of TPA induced proliferation (24 hours prior incubation with compound); format: cell-based; details: compound 24 hours before compound + 0.5µM TPA
Experimental: (§1) Cells used were swiss 3T3 mouse fibroblast cells • 1. 6 x 24 well plates were required for each experiment. • 2. Cells were removed from the standard tissue culture flask using a 1% solution of EDTA and resuspended in 10 ml of media and pipetted off into a falcon tube. • 3. The cells were then spun for 5 minutes at about 2,000rpm. • 4. The existing media was removed, and the cells again resuspended in 10ml of 10% foetal calf serum (FCS) and vortexed. • 5. The 10ml of suspension was then added to 140ml of media and mixed in a sterile jar. 1ml of the media cell suspension was then placed into each well and the plates incubated until confluent, three days .
(§2) • 1. [PCl]Cells were dosed with the test compounds (as specified below) 2 days prior to the addition of 3 [H]thymidine. The cells could only be dosed with a 0.5% solution, 5µl test solution in 1ml cellsuspension i.e. 5µl in 1ml, (TPA - 0.5µM). • 2. 0.5µl of 3[H] thymidine was added per well, therefore 72µl was added to 144µl of media (1%F.C.S.) to dose the corresponding six plates. • 3. 100µl of the media was taken to measure the measure the radioactive dose […], and added to 4ml of scintillation fluid. • 4. The radioactive media was then transferred to sterile specimen tubes and dosed with the test compounds before adding to the cells. • 5. After four hours ofbeing pulsed with radiolabelled thymidine (0.5µCi/ml) the media was removed and washed down the sink. • 6. The cells were washed twice with ice cold phosphate buffered saline (PBS), 0.5ml per well, and incubated for 30 min using ice cold 5% trichloroacetic acid (TCA) ( 1ml) per well at room temperature. • 8. The TCA was then removed and another 1ml of 5% TCA was added for 5 minutes. After the TCA was removed and 0.3NaOH and 0.1% sodium dodecyl sulphate added to each well for 30 minutes (1ml/well). • 9. The contents of each well was added to scintillation vials containing 4ml of scintillation fluid and each sample counted for four minutes using a scintillation counter. Three different assays were carried out using this protocol; • 6.1. Cytotoxicity testing of the compounds. After 48 hours of incubation and the cells were confluent a predetermined quantity of the test compounds was added to the cells. • 6.2. Inhibition of TPA induced proliferation. After 48 hours a preditermined quantity concentration of the test compounds was added to the cells as well as 0.5um of TPA. […] Inhibition of TPA induced proliferation. After 48 hours a predetermined quantity concentration of the test compounds was added to the cells for 24 hours, at 72 hours the media was changed again to contain both test compound and 0.5µM of the TPA. The objective of this experiment was to observe whether the prior incubation with the test compound had any effect on the TPA induced proliferation of the cells.

Blood platelets = assay: Inhibition of blood platelet aggregation (TPA or ADP induced) in platelet rich plasma; format: cell-based, human; details: for Percentage Inhibition of ADP Induced Aggregation: ADP 6.4 µg; for Percentage Inhibition of TPA Induced Aggregation: TPA 0.5µg
Experimental: Blood platelets release inflammatory mediators in response to an external stimulus, which affect the proliferation of the cells, which is an important part of the disease psoriasis. • 1. Male human blood was collected via venipucture of the forearm directly in to anticoagulant buffer, from healthy donors who had denied any medication for two weeks, and centrifuged at 1000rpm for 20 minutes at room temperature. • 2. The supernatant was employed as platelet rich plasma (PRP). Platelet poor plasma (PPP) was obtained by centrifuging 1ml of PRP at 11,000 rpm for 10 minutes. • 3. Inhibition of platelet aggregation was tested by adding 2.5µl of a known concentration (containing 10µg or 50µg) of the test compound to a 500µl sample ofPRP for one minute. An aggregation agent was then added as a solution to the sample in a 2.5µl quantity (containing TPA 0.5,µg or ADP 6.4 µg). Aggregation was measured using a dual channel aggregometer . • 4. Aggregation was taken as the % change in light transmission compared to the maximum change produced by TPA or ADP plus the control solution. PRP was used as a standard for zero light transmission and PP for 100% light transmission.

[2] = tested on: swiss 3T3 mouse fibroblast cells; assay: Cell culture 3[H] thymidine assay, Example 6.2 inhibition of TPA induced proliferation (compound added together with TPA); format: cell-based; details: with 0.5µM TPA
Experimental: as §1, §2

[3] = tested on: swiss 3T3 mouse fibroblast cells; assay: Cell culture 3[H] thymidine assay, Example 6.1 cytotoxicity testing (normal cell growth); format: cell-based; details: for Percentage Inhibition of 3T3 Swiss Fibroblast Growth, Example 6.1: cytotoxicity, no TPA
Experimental: as §1, §2

male Wistar rats = assay: UV-B induced erythema (dermatitis) in rat, epidermal thickness and number of epidermal cell layers; format: in vivo; details: five days; for No. of cells (epidermal proliferation as compared to the control, no treatment) / Thickness (epidermal thickening as compared to the control, no treatment): control = 100
Experimental: Rat UV-B induced dermatitis is characterised by a brownish red lesion with scab formation. Histologically, microvascular dilation, intraepidermal accumulation ofleukocytes and hyperproliferation of epidermal cells are all very similar to the symptoms of psoriasis in man (Nakaguma,H., Int. J.ofExp.Path, 76:65-73, 1995) • 1. Hair on the dorsal skin of male Wistar rats (180g) was clipped and shaved, whilst the rats were under anaesthesia, 24 hours prior to the experiment. • 2. The rats were covered by a black plastic sheeting, with two rectangular holes (about 1cm^2) cut out, thus allowing two exposure sites on the dorsal skin whilst protecting the rest of the animal. • 3. The rats were then exposed to UV-B light (302nm) at a distance of 10cm for six minutes and thirty seconds. The total W-B exposure was 2.4J/cm^2 as measured using a UV-X radiometer. • 4. The test compound was then placed onto one of the exposed areas and an unexposed area at a concentration of 100µg/5µl, in a suitable vehicle solution. • 5. Application of the test compound was repeated for five days. • 6. Histological post-mortem sections were taken on the fifth day, and stained using haematoxylin and eosin. The number ofepidermal cell layers and the epidermal thickness was counted and measured at random. Five animals were used per test group.

[4] = tested on: human polymorphonuclear neutrophils; details: properties associated with inflammatory processes; cited from earlier work
[5] = Conc. 10µg test compound in 500µl PRP
[6] = Conc. 50µg test compound in 500µl PRP
[7] = Active Compound Only, unexposed area, 100µg/5µl
[8] = UV Exposure + Active Compound versus UV Exposure, 100µg/5µl
[9] = UV Exposure + Active Compound, 100µg/5µl topical

**Q.** Which results are given for `COc1cc(O)ccc1/C=C/C(=O)c1ccc(O)cc1` [Echinatin, echinatin]?
**A.** ED50 (dose required to inhibit erythema in at least 50% of the animals) (Female CD1 mice): 5 to 10 µg; inhibition of chemically induced (TPA) erythema on the mouse ear, result in words (Female CD1 mice): most effective; Percentage Inhibition of 3T3 Swiss Fibroblast Growth, Example 6.3 ([1]; Concentration 1 µg): 65%; Percentage Inhibition of 3T3 Swiss Fibroblast Growth, Example 6.3 ([1]; Concentration 10 µg): 96%; Percentage Inhibition of 3T3 Swiss Fibroblast Growth, Example 6.3 ([1]; Concentration 20 µg): 96%; Percentage Inhibition of ADP Induced Aggregation (Blood platelets; [5]): 13%; Percentage Inhibition of ADP Induced Aggregation (Blood platelets; [6]): 14%; Percentage Inhibition of TPA Induced Aggregation (Blood platelets; [6]): 6%; Percentage Inhibition of 3T3 Swiss Fibroblast Growth, Example 6.2 ([2]; Concentration 1 µg): 42%; Percentage Inhibition of 3T3 Swiss Fibroblast Growth, Example 6.2 ([2]; Concentration 10 µg): 98%; Percentage Inhibition of 3T3 Swiss Fibroblast Growth, Example 6.2 ([2]; Concentration 20 µg): 99%; Percentage Inhibition of 3T3 Swiss Fibroblast Growth, Example 6.1 ([3]; Concentration 1 µg): 85%; Percentage Inhibition of 3T3 Swiss Fibroblast Growth, Example 6.1 ([3]; Concentration 1 µg, listed as echinatin): up to 82%; Percentage Inhibition of 3T3 Swiss Fibroblast Growth, Example 6.1 ([3]; Concentration 10 µg): 94%; Percentage Inhibition of 3T3 Swiss Fibroblast Growth, Example 6.1 ([3]; Concentration 20 µg): 99%; EC50 ([3]; Mus musculus, normal cell growth of 3T3 cells, exact value not established): 0.1 to 1 µg/mL (≈ 0.37 to 3.7 µM)

**Q.** For `COc1c(/C=C/C(=O)c2ccc(O)cc2)ccc(O)c1O` [Licochalcone B, licochalcone B], which “ED50 (dose required to inhibit erythema in at least 50% of the animals)” value (Female CD1 mice) is on record?
**A.** 5 to 10 µg

**Q.** And the “inhibition of chemically induced (TPA) erythema on the mouse ear, result in words” value (Female CD1 mice)?
**A.** most effective

**Q.** And the “Percentage Inhibition of 3T3 Swiss Fibroblast Growth, Example 6.3” value (shortened to “Percentage Inhibition … Example 6.3”) ([1]; Concentration 0.01 µg)?
**A.** 2%

**Q.** What about the “Percentage Inhibition … Example 6.3” value ([1]; Concentration 0.1 µg) of the same compound?
**A.** 37%

**Q.** What about the “Percentage Inhibition … Example 6.3” value ([1]; Concentration 1 µg) of the same compound?
**A.** 22%

**Q.** What about the “Percentage Inhibition … Example 6.3” value ([1]; Concentration 10 µg) of the same compound?
**A.** 69%

**Q.** What about the “Percentage Inhibition … Example 6.3” value ([1]; Concentration 20 µg) of the same compound?
**A.** 85%

**Q.** What about the “Percentage Inhibition of TPA Induced Aggregation” value (Blood platelets; [5]) of the same compound?
**A.** 4%

**Q.** What about the “Percentage Inhibition of ADP Induced Aggregation” value (Blood platelets; [6]) of the same compound?
**A.** 15%

**Q.** What about the “Percentage Inhibition of TPA Induced Aggregation” value (Blood platelets; [6]) of the same compound?
**A.** 13%

**Q.** What about the “Percentage Inhibition of 3T3 Swiss Fibroblast Growth, Example 6.2” value (shortened to “Percentage Inhibition … Example 6.2”) ([2]; Concentration 0.01 µg) of the same compound?
**A.** +26%

**Q.** What about the “Percentage Inhibition … Example 6.2” value ([2]; Concentration 0.1 µg) of the same compound?
**A.** 17%

**Q.** What about the “Percentage Inhibition … Example 6.2” value ([2]; Concentration 1 µg) of the same compound?
**A.** 31%

**Q.** And the “Percentage Inhibition … Example 6.2” value ([2]; Concentration 10 µg)?
**A.** 32%

**Q.** And the “Percentage Inhibition … Example 6.2” value ([2]; Concentration 20 µg)?
**A.** 73%

**Q.** And the “Percentage Inhibition of 3T3 Swiss Fibroblast Growth, Example 6.1” value (shortened to “Percentage Inhibition … Example 6.1”) ([3]; Concentration 0.01 µg)?
**A.** 16%

**Q.** And the “Percentage Inhibition … Example 6.1” value ([3]; Concentration 0.1 µg)?
**A.** 13%

**Q.** And the “Percentage Inhibition … Example 6.1” value ([3]; Concentration 1 µg)?
**A.** 41%

**Q.** What about the “Percentage Inhibition … Example 6.1” value ([3]; Concentration 10 µg) of the same compound?
**A.** 55%

**Q.** What about the “Percentage Inhibition … Example 6.1” value ([3]; Concentration 20 µg) of the same compound?
**A.** 86%

**Q.** What about the “No. of cells (epidermal proliferation as compared to the control, no treatment)” value (male Wistar rats; [7]) of the same compound?
**A.** 103%

**Q.** What about the “Thickness (epidermal thickening as compared to the control, no treatment)” value (male Wistar rats; [7]) of the same compound?
**A.** 96%

**Q.** What about the “Percentage inhibition of epidermal proliferation (No. of cells, in brackets)” value (male Wistar rats; [8]) of the same compound?
**A.** (83) %

**Q.** And the “Percentage inhibition of epidermal thickening (in brackets)” value (male Wistar rats; [8])?
**A.** (75) %

**Q.** And the “No. of cells (epidermal proliferation as compared to the control, no treatment)” value (male Wistar rats; [9])?
**A.** 129%

**Q.** What about the “Thickness (epidermal thickening as compared to the control, no treatment)” value (male Wistar rats; [9]) of the same compound?
**A.** 135%

**Q.** What about the “effect on degranulation in human polymorphonuclear neutrophils” value [4] of the same compound?
**A.** had an effect
